Assay results reported in patent publication US20210236438A1, “COMPOUNDS AND METHODS FOR THE TREATMENT OF AUTISM SPECTRUM DISORDER AND OTHER NEUROLOGICAL OR PSYCHIATRIC DISORDERS” (Tufts Medical Center, Inc., priority 2018, published 2021).
“Also recorded” adds a separate entry of the source.

Legend:
[1] = ip or oral administration; U.S. Pat. No. 3,995,061; cited from earlier work
[2] = test system: vascular endothelial growth factor (VEGF); conditions: Jeong et al. 2011; cited from earlier work
[3] = U.S. Pat. No. 3,995,061; cited from earlier work
[4] = test system: glucose transporter 1 (GLUT-1); conditions: Jeong et al. 2011; cited from earlier work
[5] = test system: GADPH; assay: Western blot of control protein level in ascochlorin-treated rat embryonic cortical neurons; format: cell-based
Excerpt: (§1) Compounds that modify hnRNP L levels therefore hold promise as lead structures for the development of ASD/mental retardation/neurological disorders.

[6] = test system: BIN1; conditions: human osteosarcoma cells (U2OS), proteome analysis, Kang et al. 2006; cited from earlier work
[7] = test system: hnRNP L; assay: Western blot of hnRNP L level in ascochlorin-treated cultured rat primary cortical neurons; format: cell-based; conditions: rat embryonic/primary cortical neurons, hnRNP L 60 KDa
Excerpt: as §1

[8] = test system: hnRNP L; conditions: Kang et al. 2006, cited from earlier work

CCOc1c(Cl)c(C)c(C=O)c(O)c1C/C=C(C)/C=C/C1(C)C(C)CCC(=O)C1C (stereo not shown) [4-O-ethyl-ascochlorin]
toxicity as assessed by LD50 [1]: low toxicity

COc1c(Cl)c(C)c(C=O)c(O)c1C/C=C(C)/C=C/[C@@]1(C)[C@H](C)CCC(=O)[C@@H]1C [MAC, 4-O-methylascochlorin]
expression of VEGF [2]: increases the expression | toxicity as assessed by LD50 [1]: low toxicity | tolerability in clinical trials [3]: well tolerated | expression of GLUT-1 [4]: increases the expression

CC(/C=C/[C@@]1(C)[C@H](C)CCC(=O)[C@@H]1C)=C\Cc1c(O)c(Cl)c(C)c(C=O)c1O [ascochlorin]
level of the control protein (GADPH 40 KDa) [5]: does not affect the level of the control protein | increase in BIN1 protein level [6]: 10 × | level of hnRNP L [7]: increases the level of hnRNP L; also recorded: increase hnRNP L levels in neurons; also recorded: increased levels of hnRNP L | hnRNP L protein levels in vitro (in words) ([8]; U2OS osteosarcoma cells): increase hnRNP L protein levels in vitro | increase in hnRNP L protein level ([8]; human osteosarcoma cells (U2OS), proteome analysis): 12 ×
